This note sets out measurements from patent US20250345287A1, “COMPOSITION COMPRISING A MIXTURE OF AT LEAST ONE OIL AND ONE OR MORE SEMIFLUORINATED ALKANES, A USE OF THE COMPOSITION FOR TREATING A DISEASE AS WELL AS A METHOD OF PRODUCING THE COMPOSITION AND CORRESPONDING KITS” (Fluoron GmbH, priority 2024, published 2025).

Like-named read-outs stand apart in the source and are kept apart here.

This data set can be described thus: Drug solubility/uptake in VitreoDens, posterior segment model. As for the experimental part:
Drugs were dissoluted in BSS in clinically relevant concentrations and placed in direct contact with VitreoDens in a ratio of 1:9. 50 μl of the hydrophilic phase were removed from the experiment after 1, 6 and 24 hours and drug concentration was determined using HPLC.
For all the tested small molecule drugs HPLC or HPLC-MS (Agilent 1100 Series) with a reversed-phase C18 column (Chromolith® Performance RP-18e, Merck KGaA Darmstadt, Germany) was performed. Calibration curves and exemplary HPLC runs for each active substance are presented in the Supplementary Materials.
Thus, the solubility of a variety of drugs was tested in VitreoDens in an established posterior segment model (FIGS. 7A and 7B) A >90% fill is mostly thought of as a sufficient fill. Thus, this ratio, given a vitreous cavity volume of 5 ml, was recreated in negatively charged glass vials. First, the drug is injected into the hydrophilic phase at a certain concentration, aliquots of the hydrophilic phase are recovered after certain time points to assess the distribution of the drug in the hydrophilic phase and in VitreoDens (FIG. 7A).

As to `C[C@@H](c1ncncc1F)[C@](O)(Cn1cncn1)c1ccc(F)cc1F` [voriconazole], the “solubility in VitreoDens” value is “excellent solubility”.

In the case of `C=CC[C@@H]1/C=C(\C)C[C@H](C)C[C@H](OC)[C@H]2O[C@@](O)(C(=O)C(=O)N3CCCC[C@H]3C(=O)O[C@H](/C(C)=C/[C@@H]3CC[C@@H](O)[C@H](OC)C3)[C@H](C)[C@@H](O)CC1=O)[C@H](C)C[C@@H]2OC` [Tacrolimus], the “solubility in VitreoDens” value is recorded as “excellent solubility”.

For `O=c1[nH]cc(F)c(=O)[nH]1` [5-Fluoruracil], the “solubility in VitreoDens” value (in-vitro, posterior segment model, FIG. 7C) is listed as “excellent solubility”. With `CC(=O)[C@]1(O)Cc2c(O)c3c(c(O)c2[C@@H](O[C@H]2C[C@H](N)[C@H](O)[C@H](C)O2)C1)C(=O)c1ccccc1C3=O` [Idarubicin], the “solubility in VitreoDens” value is given as “excellent solubility”.
